Results reported in patent publication US20240124483A1, “Methods for the Treatment of Fibrotic Disease” (SHY Therapeutics, LLC, priority 2021, published 2024).
Read-outs that look alike come from different tables or passages of the source.

Experiments:
[1] = test system: AKT phosphorylation; test: Western AKT Cell-Based Phosphorylation Assay; details: Homo sapiens, PANC-1, 6 hours, EGF 1.5 ng/ml, read-out: % inh of AKT phosphorylation in PANC-1
Procedure: (§1) Human tumor-derived pancreatic cancer cell line Panc-1 was purchased from American Type Culture Collection and grown in complete DMEM-High Glucose supplemented with penicillin (100 U/mL), streptomycin (100 μg/mL), and 10% heat-inactivated FBS at 37° C. in a humidified incubator with 5% CO2.
(§2) Method: Cells were plated at 350000 cells/well density in a 12-well plate, allowed 3 hours to adhere to the plate, then starved in the appropriate medium in the presence of 0.5% FBS overnight. The small molecules to be tested were added to the cells in the final concentration of 10 μM in the presence of 0.3% DMSO for 6 hours incubation at 37° C. Next, cells were stimulated with 1.5 ng/ml EGF for 15 minutes then cells were lysed with lysis buffer containing 1% Triton X-100, EDTA, and Halt™ Protease & Phosphatase Inhibitor Cocktail (Thermo Scientific). Protein concentration was assessed by BCA protein assay (Thermo Scientific). Phosphorylation level of Akt was determined by western blot.
(§3) Western blot protocol: Equal amounts of protein (15-50 μg) were separated by SDS-PAGE and transferred to nitrocellulose membranes (Invitrogen by Thermo Fisher Scientific). The membrane was stained with Ponceau S Stain (Boston BioProducts) to verify uniform protein loading. Membranes were blocked with 10% milk and phosphorylation levels of Akt were assessed by incubating overnight at 4° C. with anti-phospho-Akt (Ser473) antibody (Cell Signaling) followed by HRP-conjugated secondary antibody (Jackson Immunoresearch, West Grove, PA). Bands were incubated in Amersham ECL Prime Western Blotting Detection Reagent (GE Healthcare) and visualized using the ChemiDoc MP imaging system (Bio-Rad).

[2] = test system: ERK1/2 phosphorylation; test: Western ERK1/2 Cell-Based Phosphorylation Assay; details: Homo sapiens, PANC-1, 6 hours, EGF 1.5 ng/ml, read-out: % inh of ERK1/2 phosphorylation in PANC-1
Procedure: as §1, with “Cell lines: Human” for “Human”, “Glucose,” for “Glucose”
as §2, with “C. For IC50 value determination, serial dilutions of compounds were added to cells under the same conditions.” for “C.”, “ERK1/2” for “Akt”
as §3, with “ERK1/2” for “Akt”, “anti-phospho-p44/42 (Thr202/Tyr204)” for “anti-phospho-Akt (Ser473)”

[3] = target: KRas Q61H mutant (Homo sapiens (Human), UniProt P01116, Q61H); test: Ras GTP Binding Domain Inhibition Assay, KRas Q61H mutant; details: 20 μM
Procedure: A Ras Superfamily Activity Assay (as disclosed in International Application No. PCT/US2018/038613, filed Jun. 20, 2018, which is incorporated by reference in its entirety) was used as a specific assay to evaluate compounds against the following for the following Ras Superfamily proteins: KRas wild type, KRas Q61H mutant, KRas G12C mutant, KRas G12D mutant, Rac-1, and Rho-A.
Buffer-I: • 25 mM Tris-HCl, pH 7.4 • 27 mM KCl • 137 mM NaCl • 1 mM MgCl2 • 1 mM DTT
Buffer-II: • 50 mM Tris-HCl, pH 7.0 • 1 mM MgCl2 • 1 mM DTT
The small GTPases proteins: KRas wild type. KRas Q61H mutant, KRas G12C mutant, KRas G12D mutants, Rac-1, and Rho-A were expressed as His-tagged proteins. In addition, the Guanosine nucleotide Exchange Factor (GEF) Sos protein (residues 556-1049) was expressed as a His-tagged protein. In cells, the guanine nucleotide exchange factor Sos protein promotes activation of Ras proteins by stimulating an exchange of GDP for GTP. The inclusion of Sos to the Ras GTP binding domain inhibition assay may be considered as an alternative representation of physiological cellular conditions for evaluating the inhibitory activity of some of the tested small molecules.
For the assay, all purified small GTPases proteins were diluted in Buffer-I or Buffer-II to a final concentration of 10-30 μg/mL. 200 μL of each diluted protein was added to a nickel-coated 96-well plate and incubated overnight at 4° C. Then the protein solution was discarded and 200 μL of Buffer-I or Buffer-II was added to each well in the presence of 1% DMSO. Compounds to be tested were added to the protein-coated wells at final concentration of 20 μM, and incubated for 3 hours at room temperature with and without 10-30 μg/mL of Sos added to the final hour of the incubation. When performing IC50 measurements a serial dilution of all tested concentrations was added. Then Cy3-GTP or Cy5-GTP was added to each well to a final concentration of 100 nM. The labeled GTP was incubated for 45 minutes at room temperature. Following GTP incubation, wells were washed 3× in Buffer-I or Buffer-II and 200 μL of Buffer-I or Buffer-II was added to each well. Following washes, the amount of bound labeled-GTP was measured using a SpectraMax M3 (Molecular Devices).

[4] = test system: MiaPaca2; test: MiaPaca2 proliferation; format: cell-based; details: Homo sapiens, MIA PaCa-2; for inhibition at 10 µM: read-out: % inh of proliferation in MiaPaca2
[5] = + SOS, read-out: KRas Q61H mutant + SOS: % inh.
[6] = without SOS, read-out: KRas Q61H mutant: % inh.

KRas Q61H mutant, sequence (P01116 other isoform, or with tags, fused parts or gaps Q61H): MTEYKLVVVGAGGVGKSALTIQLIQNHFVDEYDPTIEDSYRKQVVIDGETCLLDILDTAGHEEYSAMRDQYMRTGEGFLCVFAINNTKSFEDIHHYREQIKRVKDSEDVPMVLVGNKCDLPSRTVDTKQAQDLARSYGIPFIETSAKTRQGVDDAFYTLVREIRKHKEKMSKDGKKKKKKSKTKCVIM

inhibition at 20 µM [3, 5] [%]	inhibition at 20 µM [3, 6] [%]	IC50 [4] [µM]	SMILES	inhibition at 10 µM [1] [%]	inhibition at 10 µM [2] [%]	inhibition at 10 µM [4] [%]
76 to 100	26 to 45	5 to 10	COc1cccc(-c2sc3nc(-c4nccn4C)nc(N[C@@H]4CC[C@@H](OC)C4)c3c2C)c1F (racemic) [Compound 43, rac-6-(2-Fluoro-3-methoxyphenyl)-N-((1R,3R)-3-methoxycyclopentyl)-5-methyl-2-(1-methyl-1H-imidazol-2-yl)thieno[2,3-d]pyrimidin-4-amine]	0	46 to 75	46 to 75
76 to 100	26 to 45	5 to 10	COc1cc(-c2sc3nc(-c4nccn4C)nc(N[C@@H]4CC[C@H](OC)C4)c3c2-c2ccccc2)ccn1 (racemic) [Compound 44, rac-N-((1R,3S)-3-Methoxycyclopentyl)-6-(2-methoxypyridin-4-yl)-2-(1-methyl-1H-imidazol-2-yl)-5-phenylthieno[2,3-d]pyrimidin-4-amine]	76 to 100	46 to 75	76 to 100
76 to 100	46 to 75	< 1	COc1cc(-c2sc3nc(-c4nccn4C)nc(N[C@@H]4CC[C@@H](OC)C4)c3c2-c2ccccc2)ccn1 (racemic) [Compound 47, N-((1R,3R)-3-Methoxycyclopentyl)-6-(2-methoxypyridin-4-yl)-2-(1-methyl-1H-imidazol-2-yl)-5-phenylthieno[2,3-d]pyrimidin-4-amine]	76 to 100	76 to 100	76 to 100
46 to 75	46 to 75	< 1	CO[C@H]1C[C@H](CNc2nc(-c3nccn3C)nc3sc(-c4ccn(C(C)C)n4)c(C)c23)C1 [Compound 16, 6-(1-Isopropyl-1H-pyrazol-3-yl)-N-(((1r,3r)-3-methoxycyclobutyl)methyl)-5-methyl-2-(1-methyl-1H-imidazol-2-yl)thieno[2,3-d]pyrimidin-4-amine]	0	76 to 100	76 to 100
46 to 75	26 to 45	5 to 10	COc1cccc(Nc2nc(-c3nccn3C)nc3sc(-c4ccn(C(C)C)n4)c(C)c23)c1 [Compound 17, 6-(1-Isopropyl-1H-pyrazol-3-yl)-N-(3-methoxyphenyl)-5-methyl-2-(1-methyl-1H-imidazol-2-yl)thieno[2,3-d]pyrimidin-4-amine]	46 to 75	76 to 100	76 to 100
46 to 75	46 to 75	< 1	COc1cccc(Nc2nc(-c3nccn3C)nc3sc(-c4ccn(C(C)C)n4)c(C)c23)n1 [Compound 18, 6-(1-Isopropyl-1H-pyrazol-3-yl)-N-(6-methoxypyridin-2-yl)-5-methyl-2-(1-methyl-1H-imidazol-2-yl)thieno[2,3-d]pyrimidin-4-amine]	26 to 45	0	76 to 100
76 to 100	76 to 100	1 to 4.99	COc1cc(Nc2nc(-c3nccn3C)nc3sc(-c4ccn(C(C)C)n4)c(C)c23)ncn1 [Compound 19, 6-(1-Isopropyl-1H-pyrazol-3-yl)-N-(6-methoxypyrimidin-4-yl)-5-methyl-2-(1-methyl-1H-imidazol-2-yl)thieno[2,3-d]pyrimidin-4-amine]	76 to 100	76 to 100	76 to 100
76 to 100	76 to 100	5 to 10	COCCOCCNc1nc(-c2nccn2C)nc2sc(-c3ccn(C(C)C)n3)c(C)c12 [Compound 21, 6-(1-Isopropyl-1H-pyrazol-3-yl)-N-(2-(2-methoxyethoxy)ethyl)-5-methyl-2-(1-methyl-1H-imidazol-2-yl)thieno[2,3-d]pyrimidin-4-amine]	1 to 25	0	76 to 100
